{"source": "the NIST ThermoML archive (doi:10.1021/acs.jced.8b01099)", "key": {"[1]": {"test": "Molar enthalpy of transition or fusion", "details": "Crystal; DSC"}, "[2]": {"details": "Crystal; DSC"}}, "note": "± gives the expanded uncertainty stated by the source."}
{"smiles": "CC(C)N1C(=O)N(c2ccccc2)CSC1=NC(C)(C)C", "note": "[buprofezin]", "values": [{"measurement": "Molar enthalpy of transition or fusion", "setting": "[1]", "value": "7.18 ± 0.239", "unit": "kcal/mol"}, {"measurement": "Triple point temperature", "setting": "[2]", "value": "377.95 ± 1.2", "unit": "K"}]}
